Assay results reported in patent US8575127B2, “Antithrombotic diadenosine tetraphosphates and related analogs” (GLSynthesis Inc., priority 2008, dated 2013).

The compounds below were run on ADP-induced human platelet aggregation (assay: ADP-induced platelet aggregation in platelet-rich human plasma (optical aggregometry)). Details: inhibition of 3 μM ADP-induced human platelet aggregation, average of 2 experiments.
Assay type: cell-based
Procedure: Platelet aggregation was initiated by adding ADP (3 μM) in the presence or absence of various concentrations of test compound to platelet-rich human plasma, and the aggregation response was recorded for six minutes in a Chrono-log® aggregometer running the Aggro/Link software (Chrono-log®, Havertown, Pa.).

Compound | IC50
CSc1nc(N)c2ncn(C3OC(COP(=O)(O)OP(=O)(O)OP(=O)(O)OP(=O)(O)OCC4OC(n5cnc6c(N)nc(SC)nc65)C(O)C4O)C(O)C3O)c2n1 (stereo not shown) [Compound 2, tetrasodium P^1,P^4-bis-(2-methylthio-5′-adenosine)tetraphosphate] | 89 ± 38 nM
CNc1ncnc2c1ncn2[C@@H]1O[C@H](COP(O)(=S)OP(=O)(O)C(Cl)P(=O)(O)OP(O)(=S)OC[C@H]2O[C@@H](n3cnc4c(NC)ncnc43)[C@H](O)[C@@H]2O)[C@@H](O)[C@H]1O (stereo partly shown) [Compound 8, P^1,P^4-bis(N^6-methyl-5′-adenosine)-P^1,P^4-dithio-P^2,P^3-monochloromethylenetetraphosphate] | 3520 ± 830 nM
CSc1nc(N)c2ncn(C3OC(COP(O)(=S)OP(=O)(O)OP(=O)(O)OP(O)(=S)OCC4OC(n5cnc6c(N)nc(SC)nc65)C(O)C4O)C(O)C3O)c2n1 (stereo not shown) [Compound 10, P^1,P^4-bis-(2-methylthio-5′-adenosine)-P^1,P^4-dithiotetraphosphate] | 50 ± 37 nM
CCCNc1ncnc2c1ncn2C1OC(COP(O)(=S)OP(=O)(O)C(Cl)P(=O)(O)OP(O)(=S)OCC2OC(n3cnc4c(NCCC)ncnc43)C(O)C2O)C(O)C1O (stereo not shown) [Compound 12, P^1,P^4-bis-(N^6-propyl-5′-adenosine)-P^1,P^4-dithio-P^2,P^3-monochloromethylenetetraphosphate] | 5560 ± 1700 nM
CSc1nc(N)c2ncn(C3OC(COP(O)(=S)OP(=O)(O)C(Cl)P(=O)(O)OP(O)(=S)OCC4OC(n5cnc6c(N)nc(SC)nc65)C(O)C4O)C(O)C3O)c2n1 (stereo not shown) [Compound 17, P^1,P^4-bis-(2-methylthio-5′-adenosine)-P^1,P^4-dithio-P^2, P^3-monochloromethylenetetraphosphate] | 13 ± 10 nM
CNc1nc(SC)nc2c1ncn2C1OC(COP(O)(=S)OP(=O)(O)C(Cl)P(=O)(O)OP(O)(=S)OCC2OC(n3cnc4c(NC)nc(SC)nc43)C(O)C2O)C(O)C1O (stereo not shown) [Compound 22, P^1,P^4-bis(N^6-methyl-2-methylthio-5′-adenosine)-P^1,P^4-dithio-P^2,P^3-monochloromethylenetetraphosphate] | 260 nM
CCCSc1nc(N)c2ncn([C@@H]3O[C@H](COP(O)(=S)OP(=O)(O)C(Cl)P(=O)(O)OP(O)(=S)OC[C@H]4O[C@@H](n5cnc6c(N)nc(SCCC)nc65)[C@H](O)[C@@H]4O)[C@@H](O)[C@H]3O)c2n1 (stereo partly shown) [Compound 32, P^1,P^4-bis(2-propylthio-5′-adenosine)-P^1,P^4-dithio-P^2,P^3-monochloromethylenetetraphosphate] | 15 ± 10 nM
Nc1nc(I)nc2c1ncn2[C@@H]1O[C@H](COP(O)(=S)OP(=O)(O)C(Cl)P(=O)(O)OP(O)(=S)OC[C@H]2O[C@@H](n3cnc4c(N)nc(I)nc43)[C@H](O)[C@@H]2O)[C@@H](O)[C@H]1O (stereo partly shown) [Compound 40, P^1,P^1-bis-(2-iodo-5′-adenosine)-P^1,P^4-dithio-P^2, P^3-monochloromethylenetetraphosphate] | 21 ± 6 nM
Nc1nc(Cl)nc2c1ncn2C1OC(COP(O)(=S)OP(=O)(O)C(Cl)P(=O)(O)OP(O)(=S)OCC2OC(n3cnc4c(N)nc(Cl)nc43)C(O)C2O)C(O)C1O (stereo not shown) [Compound 44, P^1,P^4-bis(2-chloro-5′-adenosine)-P^1,P^4-dithio-P^2,P^3-monochloromethylenetetraphosphate] | 98 ± 4 nM
Bis-adenosine tetraphosphate [Ap4A, reference compound] | 9800 ± 2800 nM
